Reference: ChEMBL document CHEMBL4219122, “Synthesis and biological evaluation of histone deacetylase and DNA topoisomerase II-Targeted inhibitors” (Bioorg Med Chem, 2018)
pIC50: −log10 of the molar value. The source made the active and inactive calls. The calls are words filed in the database; no cut-off is given here.

Assays:
[1] = Growth inhibition of human HBC4 cells after 48 hrs by sulforhodamine B-based colorimetric assay; assay type: functional; conditions: HBC4, 48 h
HT-29 = experiment: Growth inhibition of human HT-29 cells after 48 hrs by sulforhodamine B-based colorimetric assay; assay type: functional; conditions: HT-29, 48 h
MKN-45 = experiment: Growth inhibition of human MKN45 cells after 48 hrs by sulforhodamine B-based colorimetric assay; assay type: functional; conditions: MKN-45, 48 h
SF-539 = experiment: Growth inhibition of human SF539 cells after 48 hrs by sulforhodamine B-based colorimetric assay; assay type: functional; conditions: SF-539, 48 h
Histone deacetylase 1 = Histone deacetylase 1 (Homo sapiens, UniProt Q13547); experiment: Inhibition of recombinant human HDAC1 expressed in HEK293T cells using Ac-KGLGK(Ac)-MCA as substrate after 30 mins in presence of DTT by fluorescence assay
Sequence of Histone deacetylase 1 (Q13547 whole entry): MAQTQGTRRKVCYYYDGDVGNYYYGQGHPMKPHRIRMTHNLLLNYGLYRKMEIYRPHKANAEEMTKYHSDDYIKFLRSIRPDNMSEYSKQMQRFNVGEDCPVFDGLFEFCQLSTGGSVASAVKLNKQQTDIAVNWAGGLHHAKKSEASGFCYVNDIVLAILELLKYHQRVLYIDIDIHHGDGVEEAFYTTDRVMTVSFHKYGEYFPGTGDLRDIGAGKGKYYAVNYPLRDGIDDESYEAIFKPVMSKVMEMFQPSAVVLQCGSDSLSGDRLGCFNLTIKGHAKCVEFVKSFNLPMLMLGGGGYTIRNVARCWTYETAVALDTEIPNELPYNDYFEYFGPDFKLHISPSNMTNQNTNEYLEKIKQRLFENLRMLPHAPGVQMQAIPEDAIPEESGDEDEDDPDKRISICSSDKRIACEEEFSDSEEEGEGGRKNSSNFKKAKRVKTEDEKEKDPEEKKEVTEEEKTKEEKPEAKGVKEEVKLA

HCT-15 = experiment: Growth inhibition of human HCT15 cells after 48 hrs by sulforhodamine B-based colorimetric assay; assay type: functional; conditions: HCT-15, 48 h
OVCAR-5 = experiment: Growth inhibition of human OVCAR5 cells after 48 hrs by sulforhodamine B-based colorimetric assay; assay type: functional; conditions: OVCAR-5, 48 h
SNB-78 = experiment: Growth inhibition of human SNB78 cells after 48 hrs by sulforhodamine B-based colorimetric assay; assay type: functional; conditions: SNB-78, 48 h
RXF 631 = experiment: Growth inhibition of human RXF631L cells after 48 hrs by sulforhodamine B-based colorimetric assay; assay type: functional; conditions: RXF 631, 48 h
HCC 2998 = experiment: Growth inhibition of human HCC2998 cells after 48 hrs by sulforhodamine B-based colorimetric assay; assay type: functional; conditions: HCC 2998, 48 h
NCI-H226 = experiment: Growth inhibition of human NCI-H226 cells after 48 hrs by sulforhodamine B-based colorimetric assay; assay type: functional; conditions: NCI-H226, 48 h
[2] = target: T1, DNA topoisomerase 2-alpha (Homo sapiens, UniProt P11388); experiment: Inhibition of human topoisomerase-2 alpha-mediated kinetoplast DNA decatenation at 200 uM after 30 mins by ethidium bromide staining based agarose gel electrophoresis
T1 sequence (P11388 whole entry): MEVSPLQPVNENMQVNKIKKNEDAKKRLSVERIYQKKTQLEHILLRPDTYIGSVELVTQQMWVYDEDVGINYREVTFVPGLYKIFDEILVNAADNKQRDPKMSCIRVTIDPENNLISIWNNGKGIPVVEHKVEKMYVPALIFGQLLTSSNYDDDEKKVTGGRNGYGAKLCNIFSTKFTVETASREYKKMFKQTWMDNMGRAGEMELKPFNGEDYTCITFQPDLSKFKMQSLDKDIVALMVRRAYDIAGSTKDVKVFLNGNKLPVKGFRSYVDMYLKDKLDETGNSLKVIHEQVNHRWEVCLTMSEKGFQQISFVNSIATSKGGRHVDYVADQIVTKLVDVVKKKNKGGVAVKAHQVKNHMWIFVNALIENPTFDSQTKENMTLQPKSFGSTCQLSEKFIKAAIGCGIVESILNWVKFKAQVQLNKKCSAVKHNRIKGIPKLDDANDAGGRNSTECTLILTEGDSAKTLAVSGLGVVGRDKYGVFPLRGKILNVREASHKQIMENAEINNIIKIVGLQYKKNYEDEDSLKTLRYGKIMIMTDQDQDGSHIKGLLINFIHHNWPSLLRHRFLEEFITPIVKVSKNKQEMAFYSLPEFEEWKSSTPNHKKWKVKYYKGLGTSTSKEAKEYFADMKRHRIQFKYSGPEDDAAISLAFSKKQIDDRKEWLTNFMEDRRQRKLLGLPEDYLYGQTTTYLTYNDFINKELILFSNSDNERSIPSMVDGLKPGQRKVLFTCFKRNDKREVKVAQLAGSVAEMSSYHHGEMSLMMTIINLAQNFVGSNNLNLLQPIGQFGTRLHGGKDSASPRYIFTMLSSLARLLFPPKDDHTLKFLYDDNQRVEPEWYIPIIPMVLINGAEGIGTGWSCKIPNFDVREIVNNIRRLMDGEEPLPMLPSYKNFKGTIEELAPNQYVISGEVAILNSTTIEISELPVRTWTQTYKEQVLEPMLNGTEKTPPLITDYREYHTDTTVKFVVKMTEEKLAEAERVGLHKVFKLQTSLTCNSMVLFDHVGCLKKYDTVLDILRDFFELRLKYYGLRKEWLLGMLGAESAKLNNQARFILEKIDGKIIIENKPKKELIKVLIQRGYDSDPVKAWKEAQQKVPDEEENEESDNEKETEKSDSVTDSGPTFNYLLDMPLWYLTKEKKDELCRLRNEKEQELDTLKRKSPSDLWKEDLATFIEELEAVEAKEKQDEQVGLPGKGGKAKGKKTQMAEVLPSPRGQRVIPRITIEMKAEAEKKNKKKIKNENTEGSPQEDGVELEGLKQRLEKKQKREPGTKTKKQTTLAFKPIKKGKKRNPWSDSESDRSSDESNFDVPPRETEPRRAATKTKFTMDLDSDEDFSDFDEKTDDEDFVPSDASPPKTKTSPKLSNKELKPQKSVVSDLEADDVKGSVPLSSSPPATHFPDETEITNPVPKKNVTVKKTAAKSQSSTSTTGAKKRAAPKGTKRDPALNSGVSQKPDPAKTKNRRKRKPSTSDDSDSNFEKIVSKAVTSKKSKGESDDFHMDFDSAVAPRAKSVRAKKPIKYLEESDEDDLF

MKN-28 = experiment: Growth inhibition of human MKN28 cells after 48 hrs by sulforhodamine B-based colorimetric assay; assay type: functional; conditions: MKN-28, 48 h
DU-145 = experiment: Growth inhibition of human DU145 cells after 48 hrs by sulforhodamine B-based colorimetric assay; assay type: functional, cell-based; conditions: DU-145, 48 h
U-251 = experiment: Growth inhibition of human U251 cells after 48 hrs by sulforhodamine B-based colorimetric assay; assay type: functional; conditions: U-251, 48 h
OVCAR-3 = experiment: Growth inhibition of human OVCAR3 cells after 48 hrs by sulforhodamine B-based colorimetric assay; assay type: functional; conditions: OVCAR-3, 48 h
[3] = target: T1, DNA topoisomerase 2-alpha; experiment: Inhibition of human topoisomerase-2 alpha-mediated kinetoplast DNA decatenation at 100 to 400 uM after 30 mins by ethidium bromide staining based agarose gel electrophoresis
DMS-273 = experiment: Growth inhibition of human DMS273 cells after 48 hrs by sulforhodamine B-based colorimetric assay; assay type: functional; conditions: DMS-273, 48 h
OVCAR-8 = experiment: Growth inhibition of human OVCAR8 cells after 48 hrs by sulforhodamine B-based colorimetric assay; assay type: functional; conditions: OVCAR-8, 48 h
ACHN = experiment: Growth inhibition of human ACHN cells after 48 hrs by sulforhodamine B-based colorimetric assay; assay type: functional
SF-295 = experiment: Growth inhibition of human SF295 cells after 48 hrs by sulforhodamine B-based colorimetric assay; assay type: functional; conditions: SF-295, 48 h
NCI-H460 = experiment: Growth inhibition of human NCI-H460 cells after 48 hrs by sulforhodamine B-based colorimetric assay; assay type: functional; conditions: NCI-H460, 48 h
[4] = target: T2, Protein deacetylase HDAC6 (Mus musculus, UniProt Q9Z2V5); experiment: Inhibition of recombinant mouse HDAC6 expressed in HEK293T cells co-expressing mouse HDA2 using Ac-KGLGK(Ac)-MCA as substrate after 30 mins in presence of DTT by fluorescence assay
T2 sequence (Q9Z2V5 whole entry): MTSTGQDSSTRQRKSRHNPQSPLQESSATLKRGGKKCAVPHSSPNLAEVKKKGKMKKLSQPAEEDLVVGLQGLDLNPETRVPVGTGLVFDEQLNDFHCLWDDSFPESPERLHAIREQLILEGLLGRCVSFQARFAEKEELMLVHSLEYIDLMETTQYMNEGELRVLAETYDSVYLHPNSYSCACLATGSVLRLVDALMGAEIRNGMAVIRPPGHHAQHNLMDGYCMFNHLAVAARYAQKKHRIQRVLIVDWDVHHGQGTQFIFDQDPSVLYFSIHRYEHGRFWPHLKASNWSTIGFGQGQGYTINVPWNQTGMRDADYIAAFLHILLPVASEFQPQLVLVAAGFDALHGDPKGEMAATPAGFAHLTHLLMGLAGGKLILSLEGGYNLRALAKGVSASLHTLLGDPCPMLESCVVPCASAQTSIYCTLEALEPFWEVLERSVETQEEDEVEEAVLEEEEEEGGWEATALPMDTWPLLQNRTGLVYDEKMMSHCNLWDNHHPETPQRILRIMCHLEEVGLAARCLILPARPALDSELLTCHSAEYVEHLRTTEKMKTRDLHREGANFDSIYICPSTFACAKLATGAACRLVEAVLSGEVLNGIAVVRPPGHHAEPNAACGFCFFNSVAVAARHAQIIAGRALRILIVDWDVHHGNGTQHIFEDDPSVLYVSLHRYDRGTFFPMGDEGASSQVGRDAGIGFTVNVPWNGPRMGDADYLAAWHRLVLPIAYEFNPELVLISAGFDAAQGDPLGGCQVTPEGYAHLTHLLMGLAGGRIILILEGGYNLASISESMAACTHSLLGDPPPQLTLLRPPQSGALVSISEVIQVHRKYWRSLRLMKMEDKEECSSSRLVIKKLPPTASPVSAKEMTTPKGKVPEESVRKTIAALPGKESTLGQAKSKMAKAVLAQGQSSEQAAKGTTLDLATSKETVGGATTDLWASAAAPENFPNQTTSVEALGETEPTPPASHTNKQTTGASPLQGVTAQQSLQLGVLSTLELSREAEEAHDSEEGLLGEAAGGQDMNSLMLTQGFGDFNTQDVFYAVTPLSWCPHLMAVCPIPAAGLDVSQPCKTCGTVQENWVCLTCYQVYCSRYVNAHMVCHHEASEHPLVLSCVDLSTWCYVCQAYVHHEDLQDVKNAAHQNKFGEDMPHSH

KM12 = experiment: Growth inhibition of human KM12 cells after 48 hrs by sulforhodamine B-based colorimetric assay; assay type: functional; conditions: KM12, 48 h
MKN-7 = experiment: Growth inhibition of human MKN7 cells after 48 hrs by sulforhodamine B-based colorimetric assay; assay type: functional; conditions: MKN-7, 48 h
DMS-114 = experiment: Growth inhibition of human DMS114 cells after 48 hrs by sulforhodamine B-based colorimetric assay; assay type: functional; conditions: DMS-114, 48 h
MCF7 = experiment: Growth inhibition of human MCF7 cells after 48 hrs by sulforhodamine B-based colorimetric assay; assay type: functional, cell-based; conditions: MCF7, 48 h

| GI50 (HT-29) | GI50 (MKN-45) | pIC50 (Histone deacetylase 1) | GI50 (HCT-15) | GI50 (OVCAR-5) | GI50 (HCC 2998) | GI50 (NCI-H226) | inhibition [2] | GI50 (MKN-28) | GI50 (DU-145; read-out: GI50) | GI50 (DU-145; read-out: pGI50 (converted)) | GI50 (U-251) | GI50 (OVCAR-3) | inhibition [3] | GI50 (OVCAR-8) | Compound | GI50 [1] | GI50 (SF-539) | GI50 (SNB-78) | GI50 (RXF 631) | GI50 (DMS-273) | further results |
| --- | --- | --- | --- | --- | --- | --- | --- | --- | --- | --- | --- | --- | --- | --- | --- | --- | --- | --- | --- | --- | --- |
| 3.63 µM | 3.8 µM | 6.14 | 3.55 µM | 4.9 µM | 3.98 µM | 3.89 µM | Active | 3.72 µM | 3.98 µM | 3.98 µM | 3.98 µM | 2.95 µM | Active | 3.55 µM | Cc1cn([C@H]2C[C@H](C3(c4ccc(NC(=O)CCCCCCC(=O)NO)cc4)SCCCS3)[C@@H](CO[Si](C)(C)C(C)(C)C)O2)c(=O)[nH]c1=O | 3.89 µM | 3.39 µM | 6.76 µM | 3.63 µM | 3.89 µM | GI50 (ACHN): 4.37 µM; GI50 (SF-295): 4.9 µM; GI50 (NCI-H460): 3.98 µM; pIC50 [4]: 7.29; GI50 (KM12): 4.57 µM; GI50 (MKN-7): 2.95 µM; GI50 (DMS-114): 3.09 µM; GI50 (MCF7; read-out: GI50): 3.24 µM; GI50 (MCF7; read-out: pGI50 (converted)): 3.24 µM |
| 7.08 µM | 10 µM | 5.96 | 15.5 µM | 6.61 µM | 8.32 µM | 10.2 µM | Active | 4.27 µM | 3.98 µM | 3.98 µM | 5.13 µM | 3.02 µM | Active | 4.27 µM | Cc1cn([C@@H]2C[C@H](C3(c4ccc(NC(=O)CCCCCCC(=O)NO)cc4)SCCCS3)[C@@H](CO[Si](C)(C)C(C)(C)C)O2)c(=O)[nH]c1=O | 4.17 µM | 4.57 µM | 10 µM | 11.2 µM | 3.98 µM | GI50 (ACHN): 9.33 µM; GI50 (SF-295): 6.92 µM; GI50 (NCI-H460): 4.68 µM; pIC50 [4]: 7.36; GI50 (KM12): 6.76 µM; GI50 (MKN-7): 3.47 µM; GI50 (DMS-114): 3.55 µM; GI50 (MCF7; read-out: GI50): 3.89 µM; GI50 (MCF7; read-out: pGI50 (converted)): 3.89 µM |
